{
  "source": "patent US20030143645A1",
  "about": "“Quinone reductase 2 and aldehyde dehydrogenase as therapeutic targets” (priority 2001, published 2003)",
  "key": {"ALDH1": {"target": "T1, ALDH1 (Homo sapiens, UniProt P00352)", "T1 construct": "Purification of native ALDH1, QR2 and QR1; RBC extract was prepared as described above and applied to PQ-Sepharose; tissue Valley Biomedical (blood); host or cells: human red blood cells", "T1 sequence (P00352 1-501)": "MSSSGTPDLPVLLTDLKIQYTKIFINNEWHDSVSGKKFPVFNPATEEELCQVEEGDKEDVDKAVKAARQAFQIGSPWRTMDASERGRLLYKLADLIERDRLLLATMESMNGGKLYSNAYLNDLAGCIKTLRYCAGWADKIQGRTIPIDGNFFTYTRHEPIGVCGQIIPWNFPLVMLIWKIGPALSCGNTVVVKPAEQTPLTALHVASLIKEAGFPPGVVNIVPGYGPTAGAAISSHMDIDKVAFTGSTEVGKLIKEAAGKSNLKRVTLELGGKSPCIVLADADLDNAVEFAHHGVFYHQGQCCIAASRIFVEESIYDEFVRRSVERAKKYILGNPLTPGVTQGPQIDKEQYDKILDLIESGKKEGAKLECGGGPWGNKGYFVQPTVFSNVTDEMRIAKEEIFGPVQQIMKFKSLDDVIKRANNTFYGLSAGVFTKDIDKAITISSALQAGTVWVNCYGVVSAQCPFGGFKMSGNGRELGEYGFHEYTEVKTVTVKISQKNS", "assay": "hALDH1 HPLC-based activity assay (Example 1)", "format": "biochemical", "experimental": "ATP-affinity array chromatography. In whole mouse experiments, the animal (except for its tail, feet, skin and intestines) was frozen in liquid N2 and blended in buffer A containing 50 mM Hepes, pH 7.5, 50 mM NaCl, 10 mM MgCl2, 0.1% NONIDET- P40, 1 mM dithiothreitol, 1 μg/ml leupeptin, 100 μg/ml pefabloc and 10 μg/ml aprotinin. Mouse lysate was clarified by centrifugation for 1 hr at 100,000×g. For infected and non-infected RBC's˜1.5×10^9 cells were mixed with an equal volume of 2×buffer A, rocked for 30 min at 4° C., and clarified by centrifugation for 1 hr at 100,000×g. Supernatants were dialyzed overnight against 50 mM Hepes, pH 7.5, 50 mM NaCl, 10 mM MgCl2 and 1 mM dithiothreitol. […] Proteins were resolved by 12% SDS-PAGE and visualized by staining either with Coomassie brilliant Blue R-250 or silver nitrate. Alternatively, proteins were transferred to membrane GeneMate (Kaysville, Utah) in transfer buffer (25 mM Tris, 200 mM glycine, 20% methanol, and 0.01% SDS) for mixed peptide sequencing (Damer et al, J. Biol. Chem. 273:24396 (1998)). hALDH 1 and hQR2 purification and activity assays. Fresh human red blood cells (RBC) were obtained from Valley Biomedical, washed twice with PBS, and lysed in buffer B (0.1% Triton X, 50 mM Tris pH 7.5, 125 mM NaCl, 1 μg/mL aprotonin, 1 μg/mL pepstatin and 10 μg/mL PEFABLOC). […]\nValues for hALDH1 were determined by HPLC assay. […]"}, "[1]": {"test_system": "purine binding proteome (hALDH1 and hQR2)", "assay": "ATP affinity array / ATP-Sepharose displacement elution of RBC purine binding proteome", "design": "species or system human", "experimental": "ATP-affinity array chromatography. In whole mouse experiments, the animal (except for its tail, feet, skin and intestines) was frozen in liquid N2 and blended in buffer A containing 50 mM Hepes, pH 7.5, 50 mM NaCl, 10 mM MgCl2, 0.1% NONIDET- P40, 1 mM dithiothreitol, 1 μg/ml leupeptin, 100 μg/ml pefabloc and 10 μg/ml aprotinin. Mouse lysate was clarified by centrifugation for 1 hr at 100,000×g. For infected and non-infected RBC's˜1.5×10^9 cells were mixed with an equal volume of 2×buffer A, rocked for 30 min at 4° C., and clarified by centrifugation for 1 hr at 100,000×g. Supernatants were dialyzed overnight against 50 mM Hepes, pH 7.5, 50 mM NaCl, 10 mM MgCl2 and 1 mM dithiothreitol. […] Proteins were resolved by 12% SDS-PAGE and visualized by staining either with Coomassie brilliant Blue R-250 or silver nitrate. Alternatively, proteins were transferred to membrane GeneMate (Kaysville, Utah) in transfer buffer (25 mM Tris, 200 mM glycine, 20% methanol, and 0.01% SDS) for mixed peptide sequencing (Damer et al, J. Biol. Chem. 273:24396 (1998)). hALDH 1 and hQR2 purification and activity assays. Fresh human red blood cells (RBC) were obtained from Valley Biomedical, washed twice with PBS, and lysed in buffer B (0.1% Triton X, 50 mM Tris pH 7.5, 125 mM NaCl, 1 μg/mL aprotonin, 1 μg/mL pepstatin and 10 μg/mL PEFABLOC). Lysates were centrifuged twice at 125,000×g for 1 hr at 4° C. Cleared supernatant was filtered through a […] filter and loaded onto PQ-Sepharose. Pure hALDH was eluted with 5 mM NADH and pure hQR2 with 5 mM NMeN. The eluants were dialyzed overnight at 4° C. against 25 mM Tris pH 8.0 and 1 mM DTT. hALDHl was assayed as described in Table 2. Purified hQR2 was assayed at 22° C. in 100 μM N-methyldihydronicotinamide, 30 μM menadione, 0.1% Triton X-100, 50 mM Tris pH 8.5, 100 μM dicoumarol (unless stated otherwise). N-methyldihydronicotinamide was synthesized (Ortiz-Maldonado et al, Biochemistry 38(50):16636-16647 (1999)) and stored in 100 mM Tris-sulfate pH 8.0.\nAn ATP affinity array was charged with RBC and P. falciparum (blood stage) infected RBC extract.\nchromatography. P. falciparum-infected or non-infected RBCs were lysed by mixing with an equal volume of 2×buffer A and rocking for 30 min at 4° C. 1×buffer A: 50 mM Hepes, pH 7.5, 50 mM NaCl, 10 mM MgCl2, 0.1% NONIDET-P40, 1 mM dithiothreitol, 1 μg/ml leupeptin, 100 μg/ml pefabloc and 1 μg/ml aprotinin. […] Proteins were resolved by 12% SDS-PAGE and visualized by staining with Coomassie brilliant blue R-250 or silver nitrate. Alternatively, proteins were transferred to PVM membrane (Kaysville, Utah) for mixed peptide sequencing (Damer et al, J. Biol. Chem. 273(38):24396-24405 (1998)).\nTo better understand the mechanism of the quinolines, an attempt was made to identify all quinoline interacting proteins in a cell or animal lysate. To achieve this, a functional proteomics approach was used as outlined in FIG. 7. In this strategy, three different, yet complementary approaches were conducted to identify and validate targets of the quinolines. In step one, termed displacement affinity chromatography, a specific sub-proteome from a cell is captured on an affinity matrix by virtue of its interaction with an immobilized ligand (FIG. 7, Step 1). The sup-proteome is captured after application of saturating amounts of cell lysate and extensive washing of the resin. The compounds of interest (in this case, the quinolines) are then applied to the matrix in parallel and allowed to interact with the bound proteome. […] In the second step, affinity matrices were created by directly linking the quinoline drugs to Sepharose, and after application of cell lysates, all proteins that specifically eluted from these matrices in the presence of drug were identified (FIG. 7 Step 2)."}, "QR1": {"target": "QR1 (Oryctolagus cuniculus, UniProt U3KNP2)", "sequence (U3KNP2 1-274)": "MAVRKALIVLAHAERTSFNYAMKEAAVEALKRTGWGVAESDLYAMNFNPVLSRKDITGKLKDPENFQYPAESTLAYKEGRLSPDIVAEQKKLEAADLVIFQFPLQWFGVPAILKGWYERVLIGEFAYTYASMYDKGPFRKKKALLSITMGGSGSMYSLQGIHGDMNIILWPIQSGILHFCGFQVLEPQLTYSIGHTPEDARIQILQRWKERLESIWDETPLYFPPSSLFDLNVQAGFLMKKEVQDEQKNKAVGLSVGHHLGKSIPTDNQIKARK", "assay": "QR1 activity assay (Example 2)", "format": "biochemical, rabbit", "design": "QR1 was purified from rabbit liver as previously described; from tissue; host or cells: rabbit liver", "experimental": "Purification of native ALDH1, QR2 and QR1. RBC extract was prepared as described above and applied to PQ-Sepharose equilibrated in buffer A. ALDH1 and QR2 were obtained by eluting the column with 5 mM b-NAD^+ and NMeH respectively.\nALDH1, QR2 and QR1 activity assays. […] Reaction products were separated with a gradient of acetonitrile in 10 mM triethylamine acetic acid. […] QR1 IC50 values were calculated using GraphPad Prism."}},
  "data": [
    {"smiles": "CCN(CC)CCCC(C)Nc1ccnc2cc(Cl)ccc12", "note": "(stereo not drawn) [CQ, chloroquine]", "values": [
      {"measurement": "ALDH activity", "setting": "ALDH1; 0.5 mM CQ, ALDH alone 48.42 ± 9.3 pmol", "value": "26.62 ± 6.1", "unit": "pmol"},
      {"measurement": "inhibition of hALDH1 activity", "setting": "ALDH1; in the presence of physiological [NADH]", "value": "relatively weak inhibitor"},
      {"measurement": "proteins eluted from ATP-Sepharose (ALDH1 55 kDa, QR2 26 kDa)", "setting": "[1]; RBC extract, 5 mM drug (Example 2)", "value": "selectively eluted proteins of 55 and 26 kDa"},
      {"measurement": "proteins eluted from ATP affinity array (hALDH1 and hQR2)", "setting": "[1]; non-infected red cells, drug at [mM]", "value": "selectively eluted two proteins"},
      {"measurement": "IC50", "setting": "QR1", "value": "> 1000", "unit": "µM"},
      {"measurement": "effect on QR1 activity", "setting": "QR1", "value": "not affected"}
    ]}
  ]
}
